Results: US9351983B2, “Use of glycerophosphoinositols for the treatment of septic shock” (CONSIGLIO NAZIONALE DELLE RICERCHE, priority 2012, dated 2016)

Experiments:
human monocytes = assay: In vitro model of human innate immunity inflammation: morphology and viability by light microscopy; format: cell-based; conditions: 300 μM, added 20 minutes before LPS, IL-10 and TGF-β; images at 2 h, 14 h, 24 h, 48 h; one donor, preliminary
Description: FIG. 13—The in vitro model of human innate immunity inflammation. Schematic representation and timing of the in vitro stimulation of human monocytes. In order to mimic the microenvironmental changes and the timing of human host response that covers the different phases of the inflammatory reaction, from recruitment and onset, to development and resolution of inflammation, cultured cells have been exposed to sequential changes of microenvironmental conditions. Monocytes in culture were exposed to chemokine C-C motif ligand 2 (CCL2), responsible for monocytes recruitment to sites of injury through endothelial cells adhesion, lipopolysaccharide (LPS), as a pathogen insult, tumor necrosis factor α (TNFα) and interferon γ (IFN-γ) as inducers of acute phase of inflammation and finally with interleukin 10 (IL-10) and transforming growth factor β (TGF-β), responsible for the resolution of inflammation. In detail: at time zero freshly isolated human monocytes were exposed to CCL2 (20 ng/ml) at 37° C. […]
Freshly isolated human monocytes, which have been used for all the above-mentioned experiments, were purified from buffy coat prepared at I.N.T. Pascale in Naples. […] The viability of cells was determined by trypan blue staining. The purity of isolated cells (98%) was microscopically detected after centrifugation and staining with modified Wright-Giemsa dye (Diff Quick, Medion Diagnostic AG). […]

[1] = tested on: Interleukin-1 receptor α (IL-1Rα) gene expression; assay: In vitro model of human inflammation: real-time PCR of IL-1Rα; format: cell-based; conditions: 300 μM; 4 h, 14 h, 24 h, 48 h; one donor, preliminary
Protocol: FIG. 15—Glycerophosphoinositol modulates the kinetic transcriptional profile of genes involved in the regulation of inflammatory response. Human monocytes were purified from one donor and treated according to the in vitro model of human inflammation, previously described, in absence (blue line) or in presence (red line) of 300 μM glycerophosphoinositol. In detail glycerophosphoinositol was added to cells in culture 20 minutes before LPS, IL-10 and TGF-β, that is, again after each wash. Samples were collected at time 4 h, 14 h, 24 h, 48 h; freshly isolated monocytes have been considered as control at time 0 h. Total RNA was extracted from cells by RNeasy kit (Qiagen) and reverse-transcribed to cDNA (QuantiTect Reverse Transcription kit, Qiagen). […] Each sample was measured in triplicate and data were analyzed with Pfaffl methods for comparing relative expression data. The measurement of mRNA expression was expressed as fold-increase over control (time 0 h). […]
Total RNA was extracted with RNeasy kit (Qiagen) according to the manufacturer's instructions. Both integrity and quality of total RNA were checked by agarose gel electrophoresis and the concentration of each RNA sample was assessed spectrophotometrically. Total RNAs were reverse-transcribed to cDNA (QuantiTect Reverse Transcription kit, Qiagen) with oligo-dT and random primers, according to manufacturer's protocol. […]

## O=P(O)(OCC(O)CO)OC1C(O)C(O)C(O)C(O)C1O (centres unmarked) [GroPIns, glycerophosphoinositol]
Human monocytes
  cellular viability (light microscopy): cellular viability increased
[1]
  IL-1Rα mRNA expression: favoured the expression
